Assay results published in patent publication US20120328588A1, “COMPOUND PREPARATION AND ITS USES FOR PREVENTION AND TREATMENT OF HEARING IMPAIRMENT” (The Second Military Medical University of Chinese PLA, priority 2010, published 2012).

Key:
[1] = tested on: guinea pigs exposed to noise; assay: Preventive effect on noise-induced hearing impairment: hearing threshold shift of guinea pigs, drug given two days before noise exposure; format: in vivo
Description: Experiments with Hearing Threshold Shift Sixty-four guinea pigs with normal weight and pure white hair were randomly divided into control group, alpha-lipoic acid group, nimodipine group, and compound preparation group. The guinea pigs were exposed to an octave band of noise (OBN) centered at 4 kHz, 115 dB SPL, 4 h per day. Two days before noise exposure, animals in the study groups were administered with the corresponding drug dose as designed, and those in the control group were administered with normal saline (NS). Hearing threshold shift of the animals was determined at different intervals of noise exposure in different groups. The synergistic effect of alpha-lipoic acid and nimodipine on regulating hearing threshold shift was observed and analyzed using q test.
(§1) Being less than 20 dB was considered as an effective value. The synergistic effect of alpha-lipoic acid and nimodipine was analyzed using q test. Pla=2/8 means that there were 8 guinea pigs in the alpha-lipoic acid group, within which 2 were effective, and the remaining 6 were invalid. The mean of the rest was analogous to Pla=2/8.

[2] = tested on: guinea pigs exposed to noise; assay: Therapeutic effect on noise-induced hearing impairment: hearing threshold shift of guinea pigs, drug given intravenously within 7 days after noise exposure; format: in vivo
Description: Eighty guinea pigs with normal weight and pure white hair were randomly divided into control group, alpha-lipoic acid group, nimodipine group, and compound preparation group. The animals were exposed to an octave band of noise (OBN) centered at 4 kHz, 115 dB SPL, 4 h per day. Animals in the study groups were administered intravenously with the corresponding drug dose as designed, and those in the control group were administered with NS within 7 days after noise exposure. Hearing threshold shift of the animals was determined at different intervals of noise exposure in different groups. The synergistic effect of alpha-lipoic acid and nimodipine on regulating hearing threshold shift was observed and analyzed using q test.
as §1, with “test. Pla=4/10” for “test. Pla=2/8”, “were 10” for “were 8”, “which 4” for “which 2”, “to Pla=4/10.” for “to Pla=2/8.”

`O=C(O)CCCCC1CCSS1` (stereo not shown) [LA, 1-2 dithiolane-3-pentanoic acid] was tested, and the “Mean change in hearing threshold shift” value ([1]; LA 80 mg/kg, at 1st after exposure) was 32.5 dB, the “Mean change in hearing threshold shift” value ([1]; LA 80 mg/kg, at 7th day after exposure) was 20.5 dB and the “P (effective guinea pigs / guinea pigs in group)” value ([1]; LA 80 mg/kg, effective = mean hearing threshold shift less than 20 dB within 7 days of exposure to noise) was “Pla = 2/8”. The “Mean change in hearing threshold shift” value ([2]; LA 80 mg/kg intravenously, 2 weeks after exposure) was 20.5 dB, the “Mean change in hearing threshold shift” value ([2]; LA 80 mg/kg intravenously, at 1st day after exposure) was 32.5 dB and the “P (effective guinea pigs / guinea pigs in group)” value ([2]; LA 80 mg/kg intravenously, effective = mean hearing threshold shift less than 20 dB within 7 days after noise exposure) was “Pla = 4/10”.

In the case of `COCCOC(=O)C1=C(C)NC(C)=C(C(=O)OC(C)C)C1c1cccc([N+](=O)[O-])c1` (stereo not shown) [NIM, Nimodipine], the “Mean change in hearing threshold shift” value ([1]; NIM 2 mg/kg, at 1st after exposure) is reported as 41.0 dB, the “Mean change in hearing threshold shift” value ([1]; NIM 2 mg/kg, at 7th day after exposure) is reported as 23.5 dB and the “Mean change in hearing threshold shift” value ([1]; NIM 4 mg/kg, at 1st after exposure) is reported as 38.5 dB. The “Mean change in hearing threshold shift” value ([1]; NIM 4 mg/kg, at 7th day after exposure) was 24 dB, the “Mean change in hearing threshold shift” value ([1]; NIM 8 mg/kg, at 1st after exposure) was 38 dB and the “Mean change in hearing threshold shift” value ([1]; NIM 8 mg/kg, at 7th day after exposure) was 22.0 dB. For the same compound, the “Mean change in hearing threshold shift” value ([1]; NIM 16 mg/kg, at 1st after exposure) was 36 dB, the “Mean change in hearing threshold shift” value ([1]; NIM 16 mg/kg, at 7th day after exposure) was 22.0 dB and the “Mean change in hearing threshold shift” value ([2]; NIM 2 mg/kg intravenously, 2 weeks after exposure) was 23.5 dB. For the same compound, the “Mean change in hearing threshold shift” value ([2]; NIM 2 mg/kg intravenously, at 1st day after exposure) was 41.0 dB, the “Mean change in hearing threshold shift” value ([2]; NIM 4 mg/kg intravenously, 2 weeks after exposure) was 24 dB and the “Mean change in hearing threshold shift” value ([2]; NIM 4 mg/kg intravenously, at 1st day after exposure) was 38.5 dB. The “Mean change in hearing threshold shift” value ([2]; NIM 8 mg/kg intravenously, 2 weeks after exposure) was 22.0 dB, the “Mean change in hearing threshold shift” value ([2]; NIM 8 mg/kg intravenously, at 1st day after exposure) was 38 dB and the “Mean change in hearing threshold shift” value ([2]; NIM 16 mg/kg intravenously, 2 weeks after exposure) was 22.0 dB. For the same compound, the “Mean change in hearing threshold shift” value ([2]; NIM 16 mg/kg intravenously, at 1st day after exposure) was 36 dB.
